This is an account of results in patent publication US5064856A, “Novel HMG-CoA synthase inhibitors” (Merck & Co., Inc., priority 1989, dated 1991).

The target in the experiment is T1, HMG-CoA synthase (Rattus norvegicus, UniProt P17425).
T1 construct: The livers from male Charles River CD rats (225-350 g) were homogenized in 0.25M sucrose; from tissue; host or cells: liver of male Charles River CD rats
T1 sequence (P17425 1-520): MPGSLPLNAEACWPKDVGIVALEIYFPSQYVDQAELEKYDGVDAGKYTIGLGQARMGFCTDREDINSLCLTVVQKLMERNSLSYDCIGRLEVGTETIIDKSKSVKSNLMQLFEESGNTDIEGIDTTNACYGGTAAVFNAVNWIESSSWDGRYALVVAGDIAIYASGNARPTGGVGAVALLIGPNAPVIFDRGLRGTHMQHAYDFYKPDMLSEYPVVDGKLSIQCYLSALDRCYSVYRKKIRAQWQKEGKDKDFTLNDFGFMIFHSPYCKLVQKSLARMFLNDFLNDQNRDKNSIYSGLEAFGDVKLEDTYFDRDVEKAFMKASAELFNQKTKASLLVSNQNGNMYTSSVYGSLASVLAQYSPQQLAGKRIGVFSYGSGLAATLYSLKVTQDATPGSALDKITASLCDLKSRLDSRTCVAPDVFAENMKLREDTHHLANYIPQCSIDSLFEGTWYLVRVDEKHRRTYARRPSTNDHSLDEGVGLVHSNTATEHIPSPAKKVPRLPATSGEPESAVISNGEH
The experiment in a line: HMG-CoA synthase inhibition assay. In kind it is biochemical. The settings on record: enzyme from rat liver; 5 min preincubation, 30°, pH 8.0; [14C]-acetyl-CoA. The procedure: The intrinsic HMG--CoA synthase inhibition activity of the compounds of this invention is measured by the standard in vitro protocol described below:
The livers from male Charles River CD rats (225-350 g) were homogenized in 0.25M sucrose which was adjusted with phenylmethylsulfonylfluoride (PMSF) and N-p-tosyl-1-lysine chloromethyl ketone (TLCK) so that the final concentration of each was 50 and 25 μg/ml, respectively. The homogenate was first centrifuged at 700×g for 10 minutes, the supernatant decanted and recentrifuged at 7,700×g for 20 minutes. This supernatant was filtered through a fine nylon screen to remove most of the fat layer and recentrifuged at 100,000×g for 1 hour. This supernatant was removed and 1M potassium phosphate, dithiothreitol (DTT) and ethylene glycolbis(β-aminoethyl ether)-N,N,N',N'-tetraacetic acid (EGTA) added to give a final concentration of 0.1M (pH 7.2), 0.5 mM and 0.1 mM, respectively. Solid ammonium sulfate was added to 50% saturation to the protein solution, it was centrifuged at 15,000×g and the supernatant discarded. This precipitated protein could be stored at -70° C. for at least one month with very little loss of activity. The ammonium sulfate precipitate was dissolved in an minimal amount of 0.06M potassium phosphate buffer (pH 7.2) containing 0.5 mM dithiothreitol and 0.1 mM EGTA (referred to as 0.06M phosphate buffer) and dialyzed overnight against 2 liters of the same buffer to remove the ammonium sulfate and to inactivate HMG--CoA lyase [Clinkenbeard, et al., J. Biol. Chem. 250, 3108-3116 (1975)].
The dialyzed extract was added to a column of DEAE-52 (Whatman) which had been equilibrated with 0.06M phosphate buffer (10 mg of protein to 1 ml bed volume of the resin). The DEAE-cellulose was eluted with 0.06M phosphate buffer until the optical density at 280 nm was essentially zero. This fraction contained the β-ketoacetyl-CoA thiolase activity. The HMG--CoA synthase was eluted from the column with 0.1M KCl in 0.06M phosphate buffer (pH 7.2) containing 0.5 mM DTT and 0.1 mM EGTA, and was virtually free of all thiolase activity. The protein was precipitated by the addition of ammonium sulfate to give 50% saturation. This solution was stirred for 10 minutes at 4° C. and the precipitate collected by centrifugation at 15,000 rpm for 10 minutes. The supernatant was discarded and the precipitate dissolved in a minimum of 0.06M phosphate buffer, pH 7.2 (about 10 ml) and the enzyme stored at -80° C.
HMG-- CoA Synthase Inhibition Assay
Enzyme protein (ca. 12.2 μg) was added to a solution containing 117 mM Tris-HCl (pH 8.0), 11.7 mM MgCl2, 1.17 mM Ethylenediaminetetraacetic acid (EDTA), 0.58 mM dithiothreitol, and the indicated concentrations of the test compound (added as a 2 μg/ml solution in dimethylsulfoxide). The incubation took place in a volume of 0.085 ml at 30° in a shaking water bath. After 5 minutes, 15 μl of a solution containing acetoacetyl-CoA and 0.1 μCi of 1-[^14 C]-acetyl-CoA was added to give a final concentrations of 0.1 and 0.4 mM, respectively. […] Radioactivity was determined in a Packard Tri-Carb liquid scintillation counter. Percent inhibition is calculated by the formula: [formula] IC50 values were determined by plotting the log of the concentration of the test compound verses the percentage inhibition and fitting a straight line to the resulting data by using the least squares method.

pIC50: −log10 of the molar value.

Consider `CC=CCCCCC=CC(=O)NC1CC2(OC1=O)C(O)C1OC1C1OC12` (centres unmarked) [Compound A-1], for which the pIC50 (as a rule, −log10 of the IC50, conventionally taken in molar units) is less than 5.00. In the case of `CC=CCCCCC=CC(=O)NC1CC2(OC1=O)C(=O)C1OC1C(O)C2O` (centres unmarked) [Compound A-2, N-(4,5-dihydro-4',5'-dihydroxy-2',5-dioxospiro[furan-2(3H),3'-[7]oxabicyclo[4.1.0]-hept]-4-yl)-2,8-decadienamide] it was 5.60; in that of `CC=CCCCCC=CC(=O)NC1CC2(OC1=O)C(O)C1OC1C1OC12` (centres unmarked) [Compound A], 5.16. Molecule `CC=CCCCCC=CC(=O)NC(CC1(O)C(=O)C2OC2C2OC21)C(=O)OC` (stereo not drawn) [Compound B, 3,8-Dioxatricyclo(5.1.0.0^2,^4)octane-5-propanoic acid, 5-hydroxy-6-oxo-α-((1-oxo-2,8-decadienyl)amino)-, methyl ester] showed a pIC50 of 6.74. In the case of `CC=CCCCCC=CC(=O)NC1CC2(OC1=O)C(=O)C1OC1C1OC12` (centres unmarked) [Compound C] it was 6.44.
